The values that follow come from US20250026766A1, “Thiazolopyridyl Amide Derivatives as DNA Polymerase Theta Inhibitors” (BeiGene, Ltd., priority 2022, published 2025).

Chain of Pol Theta (1-894) (O75417 1-894): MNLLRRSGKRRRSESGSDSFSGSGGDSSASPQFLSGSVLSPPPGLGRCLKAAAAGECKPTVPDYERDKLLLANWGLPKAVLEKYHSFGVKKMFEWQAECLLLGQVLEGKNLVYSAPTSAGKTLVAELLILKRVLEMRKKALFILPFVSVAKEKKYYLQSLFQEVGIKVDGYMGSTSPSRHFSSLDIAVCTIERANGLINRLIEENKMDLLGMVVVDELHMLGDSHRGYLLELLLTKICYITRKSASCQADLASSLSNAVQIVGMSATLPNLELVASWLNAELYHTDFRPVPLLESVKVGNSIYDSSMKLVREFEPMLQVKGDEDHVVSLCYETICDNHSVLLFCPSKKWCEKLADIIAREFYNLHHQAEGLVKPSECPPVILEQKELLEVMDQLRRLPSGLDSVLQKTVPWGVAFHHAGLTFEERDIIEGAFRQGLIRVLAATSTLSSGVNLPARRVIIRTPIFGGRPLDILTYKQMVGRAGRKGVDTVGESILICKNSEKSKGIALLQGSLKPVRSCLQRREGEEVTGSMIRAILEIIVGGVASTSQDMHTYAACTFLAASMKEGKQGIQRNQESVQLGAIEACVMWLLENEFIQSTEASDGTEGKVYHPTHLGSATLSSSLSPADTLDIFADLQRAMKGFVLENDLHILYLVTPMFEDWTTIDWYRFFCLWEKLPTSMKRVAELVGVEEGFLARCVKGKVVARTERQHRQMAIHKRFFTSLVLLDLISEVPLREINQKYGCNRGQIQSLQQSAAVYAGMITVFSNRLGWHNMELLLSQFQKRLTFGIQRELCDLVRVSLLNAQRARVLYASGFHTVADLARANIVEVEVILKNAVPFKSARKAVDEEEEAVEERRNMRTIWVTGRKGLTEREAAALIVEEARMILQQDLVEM

The target of the assay is Pol Theta (1-894) (Homo sapiens (Human), UniProt O75417). As to the kind of experiment: Biochemical Pol Theta (1-894) ATPase IC50 assay (ADP-Glo, ssDNA substrate). The following applies: ADP-Glo assay with ssDNA substrate, room temperature. In a few lines:
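His-tagged human Pol Theta 1-894 from Sf9 baculovirus cells, 2× enzyme solution at 12.5 nM, assayed with ssDNA substrate at room temperature in 40 mM Tris pH 7.5, 20 mM MgCl2, 1 mM DTT, 0.01% BSA, 0.05% Tween-20.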
What is called IC50 is the concentration needed to halve the response being measured. A high value points to lower potency. The compound `COc1ccc(F)cc1-c1cc(C)ncc1C(=O)Nc1nc2ccc(-c3ccc(NC(C)=O)cc3)nc2s1` [Example 25, N-(5-(4-acetamidophenyl)thiazolo[5,4-b]pyridin-2-yl)-4-(5-fluoro-2-methoxyphenyl)-6-methylnicotinamide] came in with an IC50 of 0.054 µM.

Turning to `COc1ccc(C#N)cc1-c1cc(C)ncc1C(=O)Nc1nc2ccc(-c3ccc(C(N)=O)cc3)nc2s1` [Example 21, N-(5-(4-carbamoylphenyl)thiazolo[5,4-b]pyridin-2-yl)-4-(5-cyano-2-methoxyphenyl)-6-methylnicotinamide], the IC50 is 0.081 µM. Against the preceding compound, the IC50 is about 1.5-fold higher. The same measure for `COc1ccccc1-c1cnncc1C(=O)Nc1nc2ccc(-c3ccc(NC(C)=O)cc3)nc2s1` [Example 16, N-(5-(4-acetamidophenyl)thiazolo[5,4-b]pyridin-2-yl)-5-(2-methoxyphenyl)pyridazine-4-carboxamide]: 0.0082 µM. The value for `COc1ccc(C#N)cc1-c1cc(CO)ncc1C(=O)Nc1nc2ccc(-c3ccc(C#N)cc3C)nc2s1` [Example 176, 4-(5-cyano-2-methoxyphenyl)-N-(5-(4-cyano-2-methylphenyl)thiazolo[5,4-b]pyridin-2-yl)-6-(hydroxymethyl)nicotinamide] was 0.0091 µM; that for `Cc1cc(-c2cccc3c2OCO3)c(C(=O)Nc2nc3ccc(-c4ccc(C#N)cc4)nc3s2)cn1` [Example 68, 4-(benzo[d][1,3]dioxol-4-yl)-N-(5-(4-cyanophenyl)thiazolo[5,4-b]pyridin-2-yl)-6-methylnicotinamide] was 0.253 µM.

In the case of `COc1ccc(C#N)cc1-c1cc(C)ncc1C(=O)Nc1nc2ccc(-c3ccc(NC(=O)CO)cc3)nc2s1` [Example 42, 4-(5-cyano-2-methoxyphenyl)-N-(5-(4-(2-hydroxyacetamido)phenyl)thiazolo[5,4-b]pyridin-2-yl)-6-methylnicotinamide], it took 0.065 µM to reach half-maximal inhibition (IC50). The same measure for `COc1ccc(C#N)cc1-c1cc(C)ncc1C(=O)Nc1nc2ccc(-c3ccc(C(=O)NC(C)C)cc3)nc2s1` [Example 74, 4-(5-cyano-2-methoxyphenyl)-N-(5-(4-(isopropylcarbamoyl)phenyl)thiazolo[5,4-b]pyridin-2-yl)-6-methylnicotinamide]: 0.073 µM; for `COc1ccc(S(C)(=O)=O)cc1-c1cc(C)ncc1C(=O)Nc1nc2ccc(-c3ccc(C(N)=O)c(C)c3)nc2s1` [Example 175, N-(5-(4-carbamoyl-3-methylphenyl)thiazolo[5,4-b]pyridin-2-yl)-4-(2-methoxy-5-(methylsulfonyl)phenyl)-6-methylnicotinamide]: 0.0084 µM.

Turning to `COc1ccc(C#N)cc1-c1cc(C)ncc1C(=O)Nc1nc2ccc(CCc3ccc(Cl)cc3)nc2s1` [Example 107, N-(5-(4-chlorophenethyl)thiazolo[5,4-b]pyridin-2-yl)-4-(5-cyano-2-methoxyphenyl)-6-methylnicotinamide], the IC50 was found to be 0.017 µM. This IC50 lies about 2-fold higher than the previous one. The value for `COc1ccc(C#N)cc1-c1cc(C)ncc1C(=O)Nc1nc2ccc(-c3ccc(NS(C)(=O)=O)cc3)nc2s1` [Example 18, 4-(5-cyano-2-methoxyphenyl)-6-methyl-N-(5-(4-(methylsulfonamido)phenyl)thiazolo[5,4-b]pyridin-2-yl)nicotinamide] was 0.011 µM. In turn, `COc1ccccc1-c1cnncc1C(=O)Nc1nc2ccc(-c3ccc(S(C)(=O)=O)cc3)nc2s1` [Example 81, 5-(2-methoxyphenyl)-N-(5-(4-(methylsulfonyl)phenyl)thiazolo[5,4-b]pyridin-2-yl)pyridazine-4-carboxamide] yielded an IC50 of 0.0077 µM. The value for `COc1ccccc1-c1cnncc1C(=O)Nc1nc2ccc(-c3ccn[nH]3)nc2s1` [Example 47, N-(5-(1H-pyrazol-5-yl)thiazolo[5,4-b]pyridin-2-yl)-5-(2-methoxyphenyl)pyridazine-4-carboxamide] was 0.099 µM; that for `COc1ccc(C#N)cc1-c1cc(C)ncc1C(=O)Nc1nc2ccc(-c3ccc(N4CCOC4=O)cc3)nc2s1` [Example 43, 4-(5-cyano-2-methoxyphenyl)-6-methyl-N-(5-(4-(2-oxooxazolidin-3-yl)phenyl)thiazolo[5,4-b]pyridin-2-yl)nicotinamide] was 0.075 µM; that for `COc1ccc(C#N)cc1-c1cc(C)ncc1C(=O)Nc1nc2ccc(C3CCOC3)nc2s1` (stereo not shown) [Example 127, 4-(5-cyano-2-methoxyphenyl)-6-methyl-N-(5-(tetrahydrofuran-3-yl)thiazolo[5,4-b]pyridin-2-yl)nicotinamide] was 0.035 µM. Regarding `COc1ccccc1-c1cnncc1C(=O)Nc1nc2ccc(-c3ccc(NC(=O)CO)cc3)nc2s1` [Example 111, N-(5-(4-(2-hydroxyacetamido)phenyl)thiazolo[5,4-b]pyridin-2-yl)-5-(2-methoxyphenyl)pyridazine-4-carboxamide], the IC50 stood at 0.011 µM. Turning to `COc1ccccc1-n1cncc1C(=O)Nc1nc2ccc(-c3ccc(Cl)cc3)nc2s1` [Example 12, N-(5-(4-chlorophenyl)thiazolo[5,4-b]pyridin-2-yl)-1-(2-methoxyphenyl)-1H-imidazole-5-carboxamide], half-maximal inhibition (IC50) was put at 0.324 µM. The same measure for `COc1ccc(C#N)cc1-c1cc(C)ncc1C(=O)Nc1nc2ccc(OCCN3CCOCC3)nc2s1` [Example 65, 4-(5-cyano-2-methoxyphenyl)-6-methyl-N-(5-(2-morpholinoethoxy)thiazolo[5,4-b]pyridin-2-yl)nicotinamide]: 0.224 µM; for `COc1ccc(OC)c(-c2cc(C)ncc2C(=O)Nc2nc3ccc(-c4ccc(C#N)cc4)nc3s2)c1` [Example 49, N-(5-(4-cyanophenyl)thiazolo[5,4-b]pyridin-2-yl)-4-(2,5-dimethoxyphenyl)-6-methylnicotinamide]: 0.15 µM. On to `COc1c(C#N)cccc1-c1cc(C)ncc1C(=O)Nc1nc2ccc(-c3ccc(C#N)cc3)nc2s1` [Example 82, 4-(3-cyano-2-methoxyphenyl)-N-(5-(4-cyanophenyl)thiazolo[5,4-b]pyridin-2-yl)-6-methylnicotinamide], for which 0.272 µM corresponded to half-maximal inhibition (IC50).

For the compound `COc1c(F)cccc1-c1cc(C)ncc1C(=O)Nc1nc2ccc(-c3ccc(C#N)cc3)nc2s1` [Example 75, N-(5-(4-cyanophenyl)thiazolo[5,4-b]pyridin-2-yl)-4-(3-fluoro-2-methoxyphenyl)-6-methylnicotinamide], the IC50 is 0.032 µM. This IC50 is about 8.5-fold lower than that of the compound before.

`CCNC(=O)c1ccc(-c2ccc3nc(NC(=O)c4cnc(C)cc4-c4cc(C#N)ccc4OC)sc3n2)cc1` [Example 73, 4-(5-cyano-2-methoxyphenyl)-N-(5-(4-(ethylcarbamoyl)phenyl)thiazolo[5,4-b]pyridin-2-yl)-6-methylnicotinamide] had an IC50 of 0.015 µM. In turn, `COc1ccccc1-c1cnncc1C(=O)Nc1nc2ccc(-c3ccc(C#N)cc3F)nc2s1` [Example 128, N-(5-(4-cyano-2-fluorophenyl)thiazolo[5,4-b]pyridin-2-yl)-5-(2-methoxyphenyl)pyridazine-4-carboxamide] yielded an IC50 of 0.0081 µM. The same measure for `COc1ccc(C#N)cc1-c1cc(C)ncc1C(=O)Nc1nc2ccc(-c3ccc(NC(=O)C(C)C)cc3)nc2s1` [Example 50, 4-(5-cyano-2-methoxyphenyl)-N-(5-(4-isobutyramidophenyl)thiazolo[5,4-b]pyridin-2-yl)-6-methylnicotinamide]: 0.218 µM; for `COc1ccc(C(N)=O)cc1-c1cc(C)ncc1C(=O)Nc1nc2ccc(-c3ccc(NC(C)=O)cc3)nc2s1` [Example 26, N-(5-(4-acetamidophenyl)thiazolo[5,4-b]pyridin-2-yl)-4-(5-carbamoyl-2-methoxyphenyl)-6-methylnicotinamide]: 0.189 µM; for `CC(=O)Nc1ccc(-c2ccc3nc(NC(=O)c4ccc(C#N)nc4N4CCOCC4)sc3n2)cc1` [Example 5, N-(5-(4-acetamidophenyl)thiazolo[5,4-b]pyridin-2-yl)-6-cyano-2-morpholinonicotinamide]: 0.186 µM. The compound `COc1ccccc1-c1cnncc1C(=O)Nc1nc2ccc(-c3ccc(C#N)cn3)nc2s1` [Example 158, N-(5-(5-cyanopyridin-2-yl)thiazolo[5,4-b]pyridin-2-yl)-5-(2-methoxyphenyl)pyridazine-4-carboxamide] came in with an IC50 of 0.0082 µM.

Compound `COc1ccc(C#N)cc1-c1cc(C)ncc1C(=O)Nc1nc2ccc(-c3ccc(C(=O)N4CCC4)c(C)c3)nc2s1` [Example 151, N-(5-(4-(azetidine-1-carbonyl)-3-methylphenyl)thiazolo[5,4-b]pyridin-2-yl)-4-(5-cyano-2-methoxyphenyl)-6-methylnicotinamide] returned an IC50 of 0.073 µM. Compared with the last compound, the IC50 is about 8.9-fold higher. The value for `Cc1cc(-c2cccc3[nH]ncc23)c(C(=O)Nc2nc3ccc(-c4ccc(C#N)cc4)nc3s2)cn1` [Example 61, N-(5-(4-cyanophenyl)thiazolo[5,4-b]pyridin-2-yl)-4-(1H-indazol-4-yl)-6-methylnicotinamide] was 0.121 µM; that for `COc1ccc(C#N)cc1-c1cnncc1C(=O)Nc1nc2ccc(-c3ccc(NC(C)=O)cc3)nc2s1` [Example 23, N-(5-(4-acetamidophenyl)thiazolo[5,4-b]pyridin-2-yl)-5-(5-cyano-2-methoxyphenyl)pyridazine-4-carboxamide] was 0.022 µM; that for `COc1ccccc1-c1ccncc1C(=O)Nc1nc2ccc(-c3ccc(Cl)cc3)nc2s1` [Example 2, N-(5-(4-chlorophenyl)thiazolo[5,4-b]pyridin-2-yl)-4-(2-methoxyphenyl)nicotinamide] was 0.191 µM. Regarding `COc1cccc(C#N)c1-c1cc(C)ncc1C(=O)Nc1nc2ccc(-c3ccc(C#N)cc3)nc2s1` [Example 153, 4-(2-cyano-6-methoxyphenyl)-N-(5-(4-cyanophenyl)thiazolo[5,4-b]pyridin-2-yl)-6-methylnicotinamide], the midpoint of inhibition, the IC50, lay at 0.057 µM.
